Literature values in US20110020480A1, “USE OF BENZOXAZINOIDS-CONTAINING CEREAL GRAIN PRODUCTS FOR HEALTH-IMPROVING PURPOSES” (priority 2008, published 2011).

Assays:
[1] = daily dose

COc1ccc2[nH]c(=O)oc2c1 [6-MBOA, 6-methoxy-benzoxazolin-2-one]
effect on depression or mood (human males): significant positive effect | therapeutic dose for treating depressive states of mind [1]: approx. 15 mg daily | cumulative daily dose for obtaining appetite suppression (overweight women): 15 µg
